Assay results: patent US11919902B2, “Aryl-bipyridine amine derivatives as phosphatidylinositol phosphate kinase inhibitors” (HiberCell, Inc., priority 2017, dated 2024)

How the values were obtained:
[1] = molecular target: T1, GST tagged PIP4KtypeIIB (Homo sapiens, UniProt P78356); assay: Trans-FI P kinase assay PIP4K2B (PIP4KtypeIIB inhibition assay); format: biochemical; conditions: Table 4; compounds listed under IC50 range headings; 100 uM GTP, 5 nM PIP4KIIB; read-out: Trans-FI P kinase assays: PIP4K2B IC50
T1 construct: made in house; host or cells: E. coli
T1 sequence (P78356 1-416): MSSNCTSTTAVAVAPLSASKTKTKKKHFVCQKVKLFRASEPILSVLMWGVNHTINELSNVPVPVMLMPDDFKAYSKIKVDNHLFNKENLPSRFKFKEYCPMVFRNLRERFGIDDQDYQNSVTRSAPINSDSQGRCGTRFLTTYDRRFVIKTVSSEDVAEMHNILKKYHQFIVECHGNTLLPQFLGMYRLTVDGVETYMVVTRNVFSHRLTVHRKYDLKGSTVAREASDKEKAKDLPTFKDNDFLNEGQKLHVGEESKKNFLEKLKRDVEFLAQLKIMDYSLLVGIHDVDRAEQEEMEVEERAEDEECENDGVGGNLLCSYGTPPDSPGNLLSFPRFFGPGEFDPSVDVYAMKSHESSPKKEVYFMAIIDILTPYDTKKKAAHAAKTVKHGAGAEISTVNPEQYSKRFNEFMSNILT
Summary of the method: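 Transcreener FI fluorescence, converted to GDP by calibration, tracked product from 5 nM E. coli-expressed GST-PIP4KIIB acting on 80 uM PI5P (DOPE carrier) with 100 uM GTP. Compound (top 4.8 uM final, 5% DMSO) was preincubated 1 h at 27 C before the 2 h reaction; IC50 fitted from residual activity.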

[2] = molecular target: T2, GST tagged PIP4KtypeIIA (Homo sapiens, UniProt P48426); assay: ADP-glo kinase assay PIP4K 2A (PIP4KtypeIIA inhibition assay); format: biochemical; conditions: Table 3; compounds listed under IC50 range headings; 10 uM ATP, 0.5 nM PIP4KIIA
T2 construct: made in house; host or cells: E. coli
T2 sequence (P48426 1-406): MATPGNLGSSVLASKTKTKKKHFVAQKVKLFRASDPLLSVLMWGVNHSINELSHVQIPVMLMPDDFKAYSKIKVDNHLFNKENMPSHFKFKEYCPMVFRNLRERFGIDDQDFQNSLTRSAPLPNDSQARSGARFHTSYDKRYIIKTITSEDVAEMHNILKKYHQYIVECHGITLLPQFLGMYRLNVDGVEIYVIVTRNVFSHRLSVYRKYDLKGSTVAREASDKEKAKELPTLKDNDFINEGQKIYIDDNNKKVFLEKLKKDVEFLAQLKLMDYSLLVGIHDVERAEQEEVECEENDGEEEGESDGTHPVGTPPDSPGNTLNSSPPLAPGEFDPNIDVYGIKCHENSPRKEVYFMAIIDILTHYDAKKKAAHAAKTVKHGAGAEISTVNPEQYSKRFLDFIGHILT
Summary of the method: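 Read-out was ADP-Glo luminescence converted to μM ADP, with IC50 plotted as % of no-inhibitor activity against log concentration. Reactions contained 10 μM ATP, 80 μM PI5P with DOPE carrier, and 0.5 nM GST-tagged PIP4KIIA (E. coli-expressed) in pH 7.3 HEPES/MgCl2 buffer with 5% DMSO. Enzyme and compound (≤4.8 μM) were preincubated 1 h at 27 °C before the 1 h reaction.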

[3] = molecular target: T3, PIP4K2A (full length protein, SignalChem) (Homo sapiens, UniProt P48426); assay: Kinase Assay PIP4K2 A (Sprint); ADP-Glo biochemical assay; conditions: Table 2; compounds listed under IC50 range headings
T3 construct: 4 nM PIP4K2A (full length protein, SignalChem); purchased SignalChem
T3 sequence (P48426 1-406): T2 sequence (P48426 1-406)
Summary of the method: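 ADP-Glo luminescence detected ADP after a 1 h RT reaction started with 60 μM ATP solution. Before that, full-length PIP4K2A (4 nM in mix) with 100 μM PI(5)P diC8 was pre-incubated 15 min with compounds in MOPS buffer pH 7.2, 25 mM MgCl2, 0.005% Tween 20. IC50 derived from % inhibition relative to DMSO over 10 three-fold concentrations.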

Structure (SMILES)	IC50 [1]	IC50 [2]	IC50 [3]
CN(C)C(=O)c1ccc(-c2cc(-c3ccnc4[nH]c(C(=O)NCc5ccncc5)cc34)cnc2N)nc1 [Example 135, 4-(2′-amino-5-(dimethylcarbamoyl)-[2,3′-bipyridin]-5′-yl)-N-(pyridin-4-ylmethyl)-1H-pyrrolo[2,3-b]pyridine-2-carboxamide]	10 to 100 nM	100 to 1000 nM	5 to 100 nM
CN(C)C(=O)c1ccc(-c2cc(-c3ccnc4[nH]c(C(=O)NCc5cccnc5)cc34)cnc2N)nc1 [Example 136, 4-(2′-amino-5-(dimethylcarbamoyl)-[2,3′-bipyridin]-5′-yl)-N-(pyridin-3-ylmethyl)-1H-pyrrolo[2,3-b]pyridine-2-carboxamide]	10 to 100 nM	100 to 1000 nM	5 to 100 nM
CN(C)C(=O)c1ccc(-c2cc(-c3ccnc4[nH]c(C(=O)NCC(F)(F)F)cc34)cnc2N)nc1 [Example 138, 4-(2′-amino-5-(dimethylcarbamoyl)-[2,3′-bipyridin]-5′-yl)-N-(2,2,2-trifluoroethyl)-1H-pyrrolo[2,3-b]pyridine-2-carboxamide]	10 to 100 nM	100 to 1000 nM	100 to 1000 nM
Nc1ncc(-c2ccnc3[nH]c(C(=O)NCC(F)(F)F)cc23)cc1-c1ccc(C(=O)NCC(F)(F)F)cn1 [Example 139, 4-(2′-amino-5-((2,2,2-trifluoroethyl)carbamoyl)-[2,3′-bipyridin]-5′-yl)-N-(2,2,2-trifluoroethyl)-1H-pyrrolo[2,3-b]pyridine-2-carboxamide]	2500 to 5000 nM	> 5000 nM	< 5000 nM
CN(C)C(=O)c1ccc(-c2cc(-c3ccnc4[nH]c(C(=O)N5CCNCC5)cc34)cnc2N)nc1 [Example 140, 2′-amino-N,N-dimethyl-5′-(2-(piperazine-1-carbonyl)-1H-pyrrolo[2,3-b]pyridin-4-yl)-[2,3′-bipyridine]-5-carboxamide]	100 to 1000 nM	100 to 1000 nM	100 to 1000 nM
COc1ncc(-c2cncc(-c3ccc(N4CCCC4=O)cc3)c2)c2cn(C)nc12 [Example 157, 1-[4-[5-(7-methoxy-2-methyl-pyrazolo[3,4-c]pyridin-4-yl)-3-pyridyl]phenyl]pyrrolidin-2-one]	100 to 1000 nM	100 to 1000 nM	100 to 1000 nM
Cn1ncc2c(-c3cncc(-c4ccc(N5CCCC5=O)cc4)c3)c[nH]c(=O)c21 [Example 158, 1-methyl-4-(5-(4-(2-oxopyrrolidin-1-yl)phenyl)pyridin-3-yl)-1,6-dihydro-7H-pyrazolo[3,4-c]pyridin-7-one]	100 to 1000 nM	100 to 1000 nM	5 to 100 nM
Cn1cc2c(-c3cncc(-c4ccc(N5CCCC5=O)cc4)c3)c[nH]c(=O)c2n1 [Example 159, 2-methyl-4-(5-(4-(2-oxopyrrolidin-1-yl)phenyl)pyridin-3-yl)-2,6-dihydro-7H-pyrazolo[3,4-c]pyridin-7-one]	100 to 1000 nM	100 to 1000 nM	5 to 100 nM
Cn1ncc2c(-c3cncc(-c4ccc(N5CCCC5=O)cc4)c3)cn(CC#N)c(=O)c21 [Example 160, 2-(1-methyl-7-oxo-4-(5-(4-(2-oxopyrrolidin-1-yl)phenyl)pyridin-3-yl)-1,7-dihydro-6H-pyrazolo[3,4-c]pyridin-6-yl)acetonitrile]	100 to 1000 nM	100 to 1000 nM	100 to 1000 nM
CC(C)OC(=O)c1cc2c(-c3cncc(-c4ccc(N5CCCC5=O)cc4)c3)ccnc2[nH]1 [Example 161, isopropyl 4-(5-(4-(2-oxopyrrolidin-1-yl)phenyl)pyridin-3-yl)-1H-pyrrolo[2,3-b]pyridine-2-carboxylate]	10 to 100 nM	100 to 1000 nM	5 to 100 nM
CCOC(=O)c1cc2c(-c3cncc(-c4ccc(N5CCCC5=O)cc4)c3)ccnc2[nH]1 [Example 162, ethyl 4-(5-(4-(2-oxopyrrolidin-1-yl)phenyl)pyridin-3-yl)-1H-pyrrolo[2,3-b]pyridine-2-carboxylate]	10 to 100 nM	100 to 1000 nM	5 to 100 nM
O=C(O)c1cc2c(-c3cncc(-c4ccc(N5CCCC5=O)cc4)c3)ccnc2[nH]1 [Example 163, 4-(5-(4-(2-oxopyrrolidin-1-yl)phenyl)pyridin-3-yl)-1H-pyrrolo[2,3-b]pyridine-2-carboxylic acid]	10 to 100 nM	100 to 1000 nM	5 to 100 nM
Cc1ncc(-c2ccncc2)cc1-c1ccc(N2CCCC2=O)cc1 [Example 164, 1-(4-(6-methyl-3,4′-bipyridin-5-yl)phenyl)pyrrolidin-2-one]	2500 to 5000 nM	> 5000 nM	2500 to 5000 nM
COC(=O)c1cc2c(-c3cncc(-c4ccc(N5CCCC5=O)cc4)c3)ccnc2o1 [Example 165, methyl 4-(5-(4-(2-oxopyrrolidin-1-yl)phenyl)pyridin-3-yl)furo[2,3-b]pyridine-2-carboxylate]	10 to 100 nM	10 to 100 nM	5 to 100 nM
O=C(NC1COC1)c1cc2c(-c3cncc(-c4ccc(N5CCCC5=O)cc4)c3)ccnc2o1 [Example 166, N-(oxetan-3-yl)-4-(5-(4-(2-oxopyrrolidin-1-yl)phenyl)pyridin-3-yl)furo[2,3-b]pyridine-2-carboxamide]	100 to 1000 nM	10 to 100 nM	5 to 100 nM
CC(C)OC(=O)c1cc2c(-c3cncc(-c4ccc(N5CCCC5=O)cc4)c3)ccnc2o1 [Example 167, isopropyl 4-(5-(4-(2-oxopyrrolidin-1-yl)phenyl)pyridin-3-yl)furo[2,3-b]pyridine-2-carboxylate]	10 to 100 nM	10 to 100 nM	5 to 100 nM
Cc1cc(N2CCCC2=O)ccc1-c1cncc(-c2cn(C)c3ncc(C(C)(C)O)cc23)c1 [Example 168, 1-(4-(5-(5-(2-hydroxypropan-2-yl)-1-methyl-1H-pyrrolo[2,3-b]pyridin-3-yl)pyridin-3-yl)-3-methylphenyl)pyrrolidin-2-one]	2500 to 5000 nM	2500 to 5000 nM	100 to 1000 nM
Cc1cc(N2CCCC2=O)ccc1-c1cncc(-c2ccnc3[nH]c(C(=O)N(C)C)cc23)c1 [Example 169, N,N-dimethyl-4-(5-(2-methyl-4-(2-oxopyrrolidin-1-yl)phenyl)pyridin-3-yl)-1H-pyrrolo[2,3-b]pyridine-2-carboxamide]	100 to 1000 nM	1000 to 2500 nM	100 to 1000 nM
CNC(=O)c1cc2c(-c3cncc(-c4ccc(N5CCCC5=O)cc4C)c3)ccnc2o1 [Example 170, N-methyl-4-(5-(2-methyl-4-(2-oxopyrrolidin-1-yl)phenyl)pyridin-3-yl)furo[2,3-b]pyridine-2-carboxamide]	100 to 1000 nM	100 to 1000 nM	5 to 100 nM
COC(=O)c1cc2c(-c3cncc(-c4ccc(N5CCCC5=O)cc4C)c3)ccnc2[nH]1 [Example 171, methyl 4-(5-(2-methyl-4-(2-oxopyrrolidin-1-yl)phenyl)pyridin-3-yl)-1H-pyrrolo[2,3-b]pyridine-2-carboxylate]	10 to 100 nM	10 to 100 nM	5 to 100 nM
Cc1c(-c2ccc(N3CCCC3=O)cc2)cncc1-c1cn(C)c2ncc(C(C)(C)O)cc12 [Example 172, 1-(4-(5-(5-(2-hydroxypropan-2-yl)-1-methyl-1H-pyrrolo[2,3-b]pyridin-3-yl)-4-methylpyridin-3-yl)phenyl)pyrrolidin-2-one]	1000 to 2500 nM	1000 to 2500 nM	100 to 1000 nM
